Data reported in BindingDB's records for doi:10.1016/s0968-0896(98)00004-2 (Sankyo, 1998).

Target: T1, Dimer of Gag-Pol polyprotein [489-587] (Human immunodeficiency virus 1, UniProt P12497)
T1 construct: 489-587
Experiment: Protease Inhibition Assay
Method: The inhibitory activities of the compounds toward HIV-1 PR were determined by sodium dodecyl sulfate-polyacrylamide gel electrophoresis (SDS-PAGE) assay. The IC50 values of active compounds were determined using the partially purified protease and the synthetic substrate Ac-Ser-Gln-AsnTyr-Pro-Ile-Val-NH2.

Compound	IC50 [nM]
CC(C)(C)NC(=O)[C@@H]1C[C@H](Cl)CN1C(=O)[C@@H](O)[C@H](Cc1ccccc1)NC(=O)c1ccccc1I	14
Cc1cccc(C)c1C(=O)N[C@@H](Cc1ccccc1)[C@H](O)C(=O)N1C[C@@H](Cl)C[C@H]1C(=O)NC(C)(C)C	3.6
CC(C)(C)NC(=O)[C@@H]1C[C@H](Cl)CN1C(=O)[C@@H](O)[C@H](Cc1ccccc1)NC(=O)c1ccccc1N	39
CC(C)(C)NC(=O)[C@@H]1C[C@H](Cl)CN1C(=O)[C@@H](O)[C@H](Cc1ccccc1)NC(=O)c1cccc(O)c1	9
CC(C)(C)NC(=O)[C@@H]1C[C@H](Cl)CN1C(=O)[C@@H](O)[C@H](Cc1ccccc1)NC(=O)c1ccccc1Cl [2-Chlorobenzoyl-(2S,3S)-AHPBA-4(S)-Cl-Pro-NH-t-Bu]	11
Cc1ccccc1C(=O)N[C@@H](Cc1ccccc1)[C@H](O)C(=O)N1C[C@@H](Cl)C[C@H]1C(=O)NC(C)(C)C [2-Methylbenzoyl-(2S,3S)-AHPBA-4(S)-Cl-Pro-NH-t-Bu]	5.1
CC(C)(C)NC(=O)[C@@H]1C[C@H](Cl)CN1C(=O)[C@@H](O)[C@H](Cc1ccccc1)NC(=O)c1cccc(F)c1 [3-Fluorobenzoyl-(2S,3S)-AHPBA-4(S)-Cl-Pro-NH-t-Bu]	20
CC(C)(C)NC(=O)[C@@H]1C[C@H](Cl)CN1C(=O)[C@@H](O)[C@H](Cc1ccccc1)NC(=O)c1ccc(O)cc1 [4-Hydroxybenzoyl-(2S,3S)-AHPBA-4(S)-Cl-Pro-NH-t-Bu]	33
COc1cccc(C(=O)N[C@@H](Cc2ccccc2)[C@H](O)C(=O)N2C[C@@H](Cl)C[C@H]2C(=O)NC(C)(C)C)c1O [(2-Hydroxy-3-methoxy)benzoyl-(2S,3S) -AHPBA-4(S)-Cl-Pro-NH-t-Bu]	> 1000
CO[C@@H]1OCCC[C@@H]1OC(=O)N[C@@H](Cc1ccccc1)[C@H](O)C(=O)N1C[C@@H](Cl)C[C@H]1C(=O)NC(C)(C)C [(2R,3S)-2-methoxyoxan-3-yl N-[(2S,3S)-4-[(2S,4S)-2-(tert-butylcarbamoyl)-4-chloropyrrolidin-1-yl]-3-hydroxy-4-oxo-1-phenylbutan-2-yl]carbamate]	37
CO[C@H]1OCC=C[C@H]1OC(=O)N[C@@H](Cc1ccccc1)[C@H](O)C(=O)N1C[C@@H](Cl)C[C@H]1C(=O)NC(C)(C)C [(2S,3R)-2-methoxy-3,6-dihydro-2H-pyran-3-yl N-[(2S,3S)-4-[(2S,4S)-2-(tert-butylcarbamoyl)-4-chloropyrrolidin-1-yl]-3-hydroxy-4-oxo-1-phenylbutan-2-yl]carbamate]	35
CC(C)(C)NC(=O)[C@@H]1C[C@H](Cl)CN1C(=O)[C@@H](O)[C@H](Cc1ccccc1)NC(=O)c1cccc(O)c1Br [(2S,4S)-1-[(2S,3S)-3-[(2-bromo-3-hydroxyphenyl)formamido]-2-hydroxy-4-phenylbutanoyl]-N-tert-butyl-4-chloropyrrolidine-2-carboxamide]	1.5
CC(C)(C)NC(=O)[C@@H]1C[C@H](Cl)CN1C(=O)[C@@H](O)[C@H](Cc1ccccc1)NC(=O)c1ccccc1Br [(2S,4S)-1-[(2S,3S)-3-[(2-bromophenyl)formamido]-2-hydroxy-4-phenylbutanoyl]-N-tert-butyl-4-chloropyrrolidine-2-carboxamide]	12
Cc1c(N)cccc1C(=O)N[C@@H](Cc1ccccc1)[C@H](O)C(=O)N1C[C@@H](Cl)C[C@H]1C(=O)NC(C)(C)C [(2S,4S)-1-[(2S,3S)-3-[(3-amino-2-methylphenyl)formamido]-2-hydroxy-4-phenylbutanoyl]-N-tert-butyl-4-chloropyrrolidine-2-carboxamide]	5.4
CC(C)(C)NC(=O)[C@@H]1C[C@H](Cl)CN1C(=O)[C@@H](O)[C@H](Cc1ccccc1)NC(=O)c1cccc2ccccc12 [(2S,4S)-N-tert-butyl-4-chloro-1-[(2S,3S)-2-hydroxy-3-(naphthalen-1-ylformamido)-4-phenylbutanoyl]pyrrolidine-2-carboxamide]	9
CC(C)(C)NC(=O)[C@@H]1C[C@H](Cl)CN1C(=O)[C@@H](O)[C@H](Cc1ccccc1)NC(=O)c1ccccc1O [(2S,4S)-N-tert-butyl-4-chloro-1-[(2S,3S)-2-hydroxy-3-[(2-hydroxyphenyl)formamido]-4-phenylbutanoyl]pyrrolidine-2-carboxamide]	> 1000
Cc1ccc(O)c(C)c1C(=O)N[C@@H](Cc1ccccc1)[C@H](O)C(=O)N1C[C@@H](Cl)C[C@H]1C(=O)NC(C)(C)C [(2S,4S)-N-tert-butyl-4-chloro-1-[(2S,3S)-2-hydroxy-3-[(3-hydroxy-2,6-dimethylphenyl)formamido]-4-phenylbutanoyl]pyrrolidine-2-carboxamide]	2.5

Compound	IC50 [nM]
CCCc1c(O)cccc1C(=O)N[C@@H](Cc1ccccc1)[C@H](O)C(=O)N1C[C@@H](Cl)C[C@H]1C(=O)NC(C)(C)C [(2S,4S)-N-tert-butyl-4-chloro-1-[(2S,3S)-2-hydroxy-3-[(3-hydroxy-2-propylphenyl)formamido]-4-phenylbutanoyl]pyrrolidine-2-carboxamide]	1.6
CC(C)(C)NC(=O)[C@@H]1C[C@H](Cl)CN1C(=O)[C@@H](O)[C@H](Cc1ccccc1)NC(=O)c1ccccc1 [(2S,4S)-N-tert-butyl-4-chloro-1-[(2S,3S)-2-hydroxy-4-phenyl-3-(phenylformamido)butanoyl]pyrrolidine-2-carboxamide]	26
CCCc1ccccc1C(=O)N[C@@H](Cc1ccccc1)[C@H](O)C(=O)N1C[C@@H](Cl)C[C@H]1C(=O)NC(C)(C)C [(2S,4S)-N-tert-butyl-4-chloro-1-[(2S,3S)-2-hydroxy-4-phenyl-3-[(2-propylphenyl)formamido]butanoyl]pyrrolidine-2-carboxamide]	29
CCc1c(O)cccc1C(=O)N[C@@H](Cc1ccccc1)[C@H](O)C(=O)N1C[C@@H](Cl)C[C@H]1C(=O)NC(C)(C)C [(2S,4S)-N-tert-butyl-4-chloro-1-[(2S,3S)-3-[(2-ethyl-3-hydroxyphenyl)formamido]-2-hydroxy-4-phenylbutanoyl]pyrrolidine-2-carboxamide]	0.9
Cc1c(F)cccc1C(=O)N[C@@H](Cc1ccccc1)[C@H](O)C(=O)N1C[C@@H](Cl)C[C@H]1C(=O)NC(C)(C)C [(3-Fluoro-2-methyl)benzoyl-(2S,3S)-AHPBA-4(S)-Cl-Pro-NH-t-Bu]	5.6
Cc1c(O)cccc1C(=O)N[C@@H](Cc1ccccc1)[C@H](O)C(=O)N1C[C@@H](Cl)C[C@H]1C(=O)NC(C)(C)C [(3-Hydroxy-2-methylbenzoyl)-(2(S)-hydroxy-3(S)-amino-phenylbutanoyl)-4(S)-Cl-Pro-NH-t-Bu]	0.8
CC(C)(C)NC(=O)[C@@H]1C[C@H](Cl)CN1C(=O)[C@@H](O)[C@H](Cc1ccccc1)NC(=O)O[C@@H]1CO[C@H]2[C@@H]1OC[C@H]2O [(3R,3aR,6R,6aR)-6-hydroxy-hexahydrofuro[3,2-b]furan-3-yl N-[(2S,3S)-4-[(2S,4S)-2-(tert-butylcarbamoyl)-4-chloropyrrolidin-1-yl]-3-hydroxy-4-oxo-1-phenylbutan-2-yl]carbamate]	25
CC(C)(C)NC(=O)[C@@H]1C[C@H](Cl)CN1C(=O)[C@@H](O)[C@H](Cc1ccccc1)NC(=O)O[C@H]1CCCOC1 [(3S)-oxan-3-yl N-[(2S,3S)-4-[(2S,4S)-2-(tert-butylcarbamoyl)-4-chloropyrrolidin-1-yl]-3-hydroxy-4-oxo-1-phenylbutan-2-yl]carbamate]	14
CC(C)(C)NC(=O)[C@@H]1C[C@H](Cl)CN1C(=O)[C@@H](O)[C@H](Cc1ccccc1)NC(=O)O[C@H]1CCOC1 [(3S)-oxolan-3-yl N-[(2S,3S)-4-[(2S,4S)-2-(tert-butylcarbamoyl)-4-chloropyrrolidin-1-yl]-3-hydroxy-4-oxo-1-phenylbutan-2-yl]carbamate]	5.1
COC1O[C@H]2[C@H](OC(=O)N[C@@H](Cc3ccccc3)[C@H](O)C(=O)N3C[C@@H](Cl)C[C@H]3C(=O)NC(C)(C)C)[C@H](OC)OC[C@H]2O1 (stereo partly drawn) [(3aR,6R,7S,7aR)-2,6-dimethoxy-hexahydro-[1,3]dioxolo[4,5-c]pyran-7-yl N-[(2S,3S)-4-[(2S,4S)-2-(tert-butylcarbamoyl)-4-chloropyrrolidin-1-yl]-3-hydroxy-4-oxo-1-phenylbutan-2-yl]carbamate]	> 1000
CC(C)(C)NC(=O)[C@@H]1C[C@H](Cl)CN1C(=O)[C@@H](O)[C@H](Cc1ccccc1)NC(=O)OC1CCS(=O)(=O)C1 (stereo partly drawn) [[3(R,S) - (1,1 - Dioxo - tetrahydrothiophenyl)oxy]carbonyl-(2S,3S)-AHPBA-4(S)-Cl-Pro-NH-t-Bu]	11
CC(C)(C)NC(=O)[C@@H]1C[C@H](Cl)CN1C(=O)[C@@H](O)[C@H](Cc1ccccc1)NC(=O)OC1CCOC1 (stereo partly drawn) [[3(R,S)-(Tetrahydrofuranyl)oxy]carbonyl-(2S,3S)-AHPBA-4(S)-Cl-Pro-NH-t-Bu]	4.9
CC(C)(C)NC(=O)[C@@H]1C[C@H](Cl)CN1C(=O)[C@@H](O)[C@H](Cc1ccccc1)NC(=O)O[C@H]1C=CCOC1 [[5(R) - (5,6 - Dihydro - 2H-pyranyl)oxy]carbonyl - (2S,3S)-AHPBA-4(S)-Cl-Pro-NH-t-Bu]	4.5
CO[C@@H]1OCC=C[C@@H]1OC(=O)N[C@@H](Cc1ccccc1)[C@H](O)C(=O)N1C[C@@H](Cl)C[C@H]1C(=O)NC(C)(C)C [[5(S)-[6(R)-Methoxy-5,6-dihydro-2H-pyranyl]oxy]carbonyl-(2S,3S)-AHPBA-4(S)-Cl-Pro-NH-t-Bu]	29
CC(C)(C)NC(=O)[C@@H]1C[C@H](Cl)CN1C(=O)[C@@H](O)[C@H](Cc1ccccc1)NC(=O)c1ccc2ccccc2c1 [beta-Naphthoyl-(2S,3S)-AHPBA-4(S)-Cl-Pro-NH-t-Bu]	50
CC(C)(C)NC(=O)[C@@H]1C[C@H](Cl)CN1C(=O)[C@@H](O)[C@H](Cc1ccccc1)NC(=O)OC1CCCC1 [cyclopentyl N-[(2S,3S)-4-[(2S,4S)-2-(tert-butylcarbamoyl)-4-chloropyrrolidin-1-yl]-3-hydroxy-4-oxo-1-phenylbutan-2-yl]carbamate]	19
